Experimental data from patent publication US20220280661A1, “GLUCOCORTICOID RECEPTOR RADIOLIGANDS AND METHODS FOR THEIR PREPARATION AND USE” (The Regents of the University of California, priority 2019, published 2022).
Where two headings read alike, the source gives them in different places.

Key:
GR = target: T1, GR (Homo sapiens, UniProt P04150); assay: 3H-ligand displacement assay on cells, GR (DU145); type: binding; conditions: for selectivity for GR over other subfamily 3 nuclear hormone receptors: relative affinity
T1 construct: evaluated using ^3H-ligand displacement assays on cells; endogenous in cells; host or cells: DU145
T1 sequence (P04150 1-777): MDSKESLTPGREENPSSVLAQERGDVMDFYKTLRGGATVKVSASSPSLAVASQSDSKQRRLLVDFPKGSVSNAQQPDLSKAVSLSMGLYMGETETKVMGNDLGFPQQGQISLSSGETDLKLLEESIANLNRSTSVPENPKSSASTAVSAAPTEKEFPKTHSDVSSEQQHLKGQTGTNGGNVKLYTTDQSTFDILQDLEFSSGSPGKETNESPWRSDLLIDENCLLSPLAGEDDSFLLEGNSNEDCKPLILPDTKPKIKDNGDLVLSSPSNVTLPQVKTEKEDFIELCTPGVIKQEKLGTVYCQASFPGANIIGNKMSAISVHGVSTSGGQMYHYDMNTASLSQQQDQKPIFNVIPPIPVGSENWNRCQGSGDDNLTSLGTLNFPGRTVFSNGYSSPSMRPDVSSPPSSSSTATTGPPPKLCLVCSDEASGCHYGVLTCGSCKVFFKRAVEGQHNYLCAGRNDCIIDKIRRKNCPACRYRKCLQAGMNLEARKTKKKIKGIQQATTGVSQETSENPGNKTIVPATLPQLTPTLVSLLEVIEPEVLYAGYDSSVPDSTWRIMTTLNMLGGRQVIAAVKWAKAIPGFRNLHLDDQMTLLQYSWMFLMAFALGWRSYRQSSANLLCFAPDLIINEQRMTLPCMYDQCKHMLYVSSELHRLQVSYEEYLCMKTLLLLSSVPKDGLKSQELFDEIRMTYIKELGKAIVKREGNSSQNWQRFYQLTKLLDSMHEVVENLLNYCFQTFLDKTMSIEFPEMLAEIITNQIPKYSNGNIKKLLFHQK
Procedure: The affinity of YJH08 for GR and the other type 1 subfamily 3 nuclear hormone receptors was evaluated using ^3H-ligand displacement assays on cells. The Kd for subfamily 3 class C nuclear hormone receptors was determined on cells by displacing ^3H-steroidal agonists for the respective receptor. […] The Kd was determined using the following cell lines: DU145 (GR), LNCaP-AR (AR), MCF7 (PR, ER), and HEK293 transiently overexpressing full length human MR.
The cold ligands and ^3H-steroids were co-incubated on cells in PBS at room temperature for one hour. Following incubation, the cells were washed twice with ice cold PBS and the unbound activity was retained for analysis. The cells were lysed with 1 mL of 1M NaOH and collected. Bound and unbound fractions were counted in a liquid scintillation counter and expressed as a percentage of the total activity added per equal relative number of cells. […] These experiments were performed at three concentrations of experimental ligand (1 pM, 100 nM and 10 μM), and a linear extrapolation was used to subtract the non-specific component of binding from each treatment condition. The specific binding component was plotted against the log of the competing ligand and curve fit using a non-linear regression algorithm with PRISM software.

PC3 tumors = assay: [18F]-YJH08 uptake in PC3 tumors implanted in the renal capsule; type: in vivo, mouse; conditions: renal capsule implant, nu/nu mice
Procedure: For tumor imaging studies, male nu/nu mice were used for the renal capsule tumor implants. The mice were anesthetized with isofluorane (2-3%) and performed with a dorsal midline incision (0.5 cm). With pressure applied on the muscle wall, one kidney was pulled gently and carefully through the small incision. PC3 cells ([…] in 50 μL PBS) were injected under the kidney capsule, which was lifted from the kidney parenchyma. The kidney was placed into the mouse, and the incision closed with 3 surgical sutures. Carprofen (5-10 mg/kg) was administered to the mice during recovery. Mice were observed carefully over 24 hours for the signs of post-operative bleeding, pain and (or) other complications. After surgery, a 14 T Agilent small animal MRI was used to monitor the tumor progression. Animals were studied approximately 10 days post injection of tumor cells.
Lastly, digital autoradiography of the affected kidney was applied to define relative uptake of the radiotracer in the tumor and normal kidney parenchyma (FIGS. 5B and 5C). The radiotracer uptake in the tumor was qualitatively much higher than the level observed in the kidney.

[1] = Post mortem biodistribution of [18F]-YJH08 at 30, 60, 90 min; type: in vivo, mouse; conditions: C57B16/J mice
Procedure: For a broader survey of radiotracer biodistribution post mortem, mice were euthanized after radiotracer injection with CO2(g) asphyxiation and dissected at dedicated time points post injection. The blood and tissues were removed, washed, dried and weighed. The activity of each tissue was measured with a gamma counter. All data was decay corrected. PRISM software was used to express a percentage (% ID/g) of the injected dose per gram of tissue. […] Table 2 provides a tabular representation of the biodistribution data collected 30, 60, 90 minutes after injection of [18F]-YJH08 in C57B16/J mice. The data are represented as mean standard deviation of the % ID/g.

In the case of `COc1cccc2c1-c1ccc3c(c1C(Cc1ccc([18F])cc1)O2)C(C)=CC(C)(C)N3` (racemic) [[18F]-YJH08, [^18F]-5-(4-fluorobenzyl)-10-methoxy-2,2,4-trimethyl-2,5-dihydro-1H-chromeno[3,4-f]quinoline], the “affinity for GR” value (GR; in words) is reported as “sub nM”, the “selectivity for GR over other subfamily 3 nuclear hormone receptors” value (GR) is reported as “at least 100 fold” and the “radiotracer uptake in PC3 tumor” value (PC3 tumors) is reported as about 3 % ID/g. The “radiotracer uptake, Adrenal Gland” value ([1]; 30 min after injection) was 20.02 ± 2.21 % ID/g, the “radiotracer uptake, Blood” value ([1]; 30 min after injection) was 0.85 ± 0.1 % ID/g and the “radiotracer uptake, Bone” value ([1]; 30 min after injection) was 1.11 ± 0.15 % ID/g. For the same compound, the “radiotracer uptake, Brain” value ([1]; 30 min after injection) was 1.68 ± 0.14 % ID/g, the “radiotracer uptake, Heart” value ([1]; 30 min after injection) was 3.04 ± 0.75 % ID/g and the “radiotracer uptake, Kidney” value ([1]; 30 min after injection) was 4.5 ± 0.5 % ID/g. For the same compound, the “radiotracer uptake, Large intestine” value ([1]; 30 min after injection) was 1.33 ± 0.35 % ID/g, the “radiotracer uptake, Liver” value ([1]; 30 min after injection) was 11.03 ± 0.89 % ID/g and the “radiotracer uptake, Lung” value ([1]; 30 min after injection) was 2.65 ± 0.19 % ID/g. For the same compound, the “radiotracer uptake, Muscle” value ([1]; 30 min after injection) was 1.49 ± 0.2 % ID/g, the “radiotracer uptake, Pancreas” value ([1]; 30 min after injection) was 4.5 ± 0.15 % ID/g and the “radiotracer uptake, Small intestine” value ([1]; 30 min after injection) was 19.05 ± 3.27 % ID/g. The “radiotracer uptake, Spleen” value ([1]; 30 min after injection) was 1.59 ± 0.13 % ID/g, the “radiotracer uptake, Stomach” value ([1]; 30 min after injection) was 1.88 ± 0.96 % ID/g and the “radiotracer uptake, Supraspinal BAT” value ([1]; 30 min after injection) was 14.41 ± 3.42 % ID/g. The “radiotracer uptake, Adrenal Gland” value ([1]; 60 min after injection) was 9.43 ± 0.08 % ID/g, the “radiotracer uptake, Blood” value ([1]; 60 min after injection) was 0.57 ± 0.02 % ID/g and the “radiotracer uptake, Bone” value ([1]; 60 min after injection) was 0.61 ± 0.15 % ID/g. The “radiotracer uptake, Brain” value ([1]; 60 min after injection) was 1.33 ± 0.06 % ID/g, the “radiotracer uptake, Heart” value ([1]; 60 min after injection) was 1.33 ± 0.21 % ID/g and the “radiotracer uptake, Kidney” value ([1]; 60 min after injection) was 2.35 ± 0.34 % ID/g. For the same compound, the “radiotracer uptake, Large intestine” value ([1]; 60 min after injection) was 1.23 ± 0.43 % ID/g, the “radiotracer uptake, Liver” value ([1]; 60 min after injection) was 7.7 ± 0.69 % ID/g and the “radiotracer uptake, Lung” value ([1]; 60 min after injection) was 2.02 ± 0.29 % ID/g. For the same compound, the “radiotracer uptake, Muscle” value ([1]; 60 min after injection) was 1.15 ± 0.03 % ID/g, the “radiotracer uptake, Pancreas” value ([1]; 60 min after injection) was 2.63 ± 0.05 % ID/g and the “radiotracer uptake, Small intestine” value ([1]; 60 min after injection) was 8.61 ± 2.68 % ID/g. The “radiotracer uptake, Spleen” value ([1]; 60 min after injection) was 0.83 ± 0.02 % ID/g, the “radiotracer uptake, Stomach” value ([1]; 60 min after injection) was 1.63 ± 0.92 % ID/g and the “radiotracer uptake, Supraspinal BAT” value ([1]; 60 min after injection) was 16.4 ± 4.93 % ID/g. For the same compound, the “radiotracer uptake, Adrenal Gland” value ([1]; 90 min after injection) was 5.72 ± 2.32 % ID/g, the “radiotracer uptake, Blood” value ([1]; 90 min after injection) was 0.49 ± 0.06 % ID/g and the “radiotracer uptake, Bone” value ([1]; 90 min after injection) was 0.58 ± 0.16 % ID/g. The “radiotracer uptake, Brain” value ([1]; 90 min after injection) was 0.97 ± 0.03 % ID/g, the “radiotracer uptake, Heart” value ([1]; 90 min after injection) was 0.92 ± 0.14 % ID/g and the “radiotracer uptake, Kidney” value ([1]; 90 min after injection) was 1.86 ± 0.26 % ID/g. The “radiotracer uptake, Large intestine” value ([1]; 90 min after injection) was 6.67 ± 4.73 % ID/g, the “radiotracer uptake, Liver” value ([1]; 90 min after injection) was 8.43 ± 1.38 % ID/g and the “radiotracer uptake, Lung” value ([1]; 90 min after injection) was 1.39 ± 0.1 % ID/g. The “radiotracer uptake, Muscle” value ([1]; 90 min after injection) was 0.85 ± 0.18 % ID/g, the “radiotracer uptake, Pancreas” value ([1]; 90 min after injection) was 1.9 ± 0.41 % ID/g and the “radiotracer uptake, Small intestine” value ([1]; 90 min after injection) was 7.67 ± 2.34 % ID/g. For the same compound, the “radiotracer uptake, Spleen” value ([1]; 90 min after injection) was 0.74 ± 0.15 % ID/g, the “radiotracer uptake, Stomach” value ([1]; 90 min after injection) was 2.61 ± 1.54 % ID/g and the “radiotracer uptake, Supraspinal BAT” value ([1]; 90 min after injection) was 14.58 ± 1.91 % ID/g.
For `COc1cccc2c1-c1ccc3c(c1C(Cc1ccc(F)cc1)O2)C(C)=CC(C)(C)N3` (racemic) [YJH08, 5-(4-fluorobenzyl)-10-methoxy-2,2,4-trimethyl-2,5-dihydro-1H-chromeno[3,4-f]quinoline], the “fold more potent than the agonist dexamethasone (GR)” value (GR) was “about 10 fold”, the Kd (GR; DU145 cells, 3H-dexamethasone, Reference = dexamethasone, read-out: Kd GR) was 0.401 nM and the Kd (GR; read-out: Kd for GR) was about 0.4 nM. The “selectivity for GR over other subfamily 3 nuclear hormone receptors” value (GR) was “at least 100 fold”.
